One data set deals with T1, human ABCC4 (Homo sapiens, UniProt O15439).
T1 sequence (O15439 1-1325): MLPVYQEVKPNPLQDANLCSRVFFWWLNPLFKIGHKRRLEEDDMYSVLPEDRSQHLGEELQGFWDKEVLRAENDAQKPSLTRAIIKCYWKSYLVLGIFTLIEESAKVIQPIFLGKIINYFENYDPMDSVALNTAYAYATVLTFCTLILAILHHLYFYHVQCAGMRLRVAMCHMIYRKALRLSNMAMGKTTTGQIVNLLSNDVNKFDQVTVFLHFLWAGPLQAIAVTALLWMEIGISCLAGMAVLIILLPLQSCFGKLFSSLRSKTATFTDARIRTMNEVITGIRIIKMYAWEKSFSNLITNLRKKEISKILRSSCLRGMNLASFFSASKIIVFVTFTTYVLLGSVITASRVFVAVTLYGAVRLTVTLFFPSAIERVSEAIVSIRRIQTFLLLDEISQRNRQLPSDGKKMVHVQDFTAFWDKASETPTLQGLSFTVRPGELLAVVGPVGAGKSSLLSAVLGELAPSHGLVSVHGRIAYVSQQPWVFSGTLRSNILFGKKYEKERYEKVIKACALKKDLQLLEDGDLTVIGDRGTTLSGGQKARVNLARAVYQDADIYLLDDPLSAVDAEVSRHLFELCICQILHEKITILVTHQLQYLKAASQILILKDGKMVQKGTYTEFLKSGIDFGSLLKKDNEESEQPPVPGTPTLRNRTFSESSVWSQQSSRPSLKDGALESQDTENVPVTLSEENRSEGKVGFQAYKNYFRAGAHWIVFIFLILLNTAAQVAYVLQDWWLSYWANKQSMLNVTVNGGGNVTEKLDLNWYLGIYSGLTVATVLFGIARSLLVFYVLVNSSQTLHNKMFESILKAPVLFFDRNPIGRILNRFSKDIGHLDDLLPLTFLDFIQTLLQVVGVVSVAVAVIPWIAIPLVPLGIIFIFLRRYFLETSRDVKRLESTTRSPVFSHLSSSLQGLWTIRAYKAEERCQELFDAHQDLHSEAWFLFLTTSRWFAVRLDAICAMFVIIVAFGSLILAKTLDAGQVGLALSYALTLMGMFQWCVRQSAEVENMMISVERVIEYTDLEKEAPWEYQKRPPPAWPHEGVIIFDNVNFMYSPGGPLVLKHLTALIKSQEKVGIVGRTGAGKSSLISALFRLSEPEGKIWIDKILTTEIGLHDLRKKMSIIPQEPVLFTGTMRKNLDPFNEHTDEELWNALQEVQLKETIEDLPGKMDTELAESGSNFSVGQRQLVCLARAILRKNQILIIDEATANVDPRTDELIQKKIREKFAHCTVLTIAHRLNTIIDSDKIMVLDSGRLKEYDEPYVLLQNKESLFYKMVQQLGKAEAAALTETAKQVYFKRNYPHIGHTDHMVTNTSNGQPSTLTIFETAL
As to the kind of experiment: Uptake into inside-out Sf9 vesicles expressing ABCC4. The following applies: GSH 2mM.

The conditions of data set [1]: ref 24 (methotrexate), 14 (cefadroxil); cited from earlier work.
The test system of another data set is ABCC4. The following applies: cited from earlier work; for Km: read-out: Michaelis-Menten constant (Km) for ABCC4.
The target of data set [2] is T2, mouse Abcc4 (Mus musculus, UniProt E9Q236).
T2 sequence (E9Q236 1-1325): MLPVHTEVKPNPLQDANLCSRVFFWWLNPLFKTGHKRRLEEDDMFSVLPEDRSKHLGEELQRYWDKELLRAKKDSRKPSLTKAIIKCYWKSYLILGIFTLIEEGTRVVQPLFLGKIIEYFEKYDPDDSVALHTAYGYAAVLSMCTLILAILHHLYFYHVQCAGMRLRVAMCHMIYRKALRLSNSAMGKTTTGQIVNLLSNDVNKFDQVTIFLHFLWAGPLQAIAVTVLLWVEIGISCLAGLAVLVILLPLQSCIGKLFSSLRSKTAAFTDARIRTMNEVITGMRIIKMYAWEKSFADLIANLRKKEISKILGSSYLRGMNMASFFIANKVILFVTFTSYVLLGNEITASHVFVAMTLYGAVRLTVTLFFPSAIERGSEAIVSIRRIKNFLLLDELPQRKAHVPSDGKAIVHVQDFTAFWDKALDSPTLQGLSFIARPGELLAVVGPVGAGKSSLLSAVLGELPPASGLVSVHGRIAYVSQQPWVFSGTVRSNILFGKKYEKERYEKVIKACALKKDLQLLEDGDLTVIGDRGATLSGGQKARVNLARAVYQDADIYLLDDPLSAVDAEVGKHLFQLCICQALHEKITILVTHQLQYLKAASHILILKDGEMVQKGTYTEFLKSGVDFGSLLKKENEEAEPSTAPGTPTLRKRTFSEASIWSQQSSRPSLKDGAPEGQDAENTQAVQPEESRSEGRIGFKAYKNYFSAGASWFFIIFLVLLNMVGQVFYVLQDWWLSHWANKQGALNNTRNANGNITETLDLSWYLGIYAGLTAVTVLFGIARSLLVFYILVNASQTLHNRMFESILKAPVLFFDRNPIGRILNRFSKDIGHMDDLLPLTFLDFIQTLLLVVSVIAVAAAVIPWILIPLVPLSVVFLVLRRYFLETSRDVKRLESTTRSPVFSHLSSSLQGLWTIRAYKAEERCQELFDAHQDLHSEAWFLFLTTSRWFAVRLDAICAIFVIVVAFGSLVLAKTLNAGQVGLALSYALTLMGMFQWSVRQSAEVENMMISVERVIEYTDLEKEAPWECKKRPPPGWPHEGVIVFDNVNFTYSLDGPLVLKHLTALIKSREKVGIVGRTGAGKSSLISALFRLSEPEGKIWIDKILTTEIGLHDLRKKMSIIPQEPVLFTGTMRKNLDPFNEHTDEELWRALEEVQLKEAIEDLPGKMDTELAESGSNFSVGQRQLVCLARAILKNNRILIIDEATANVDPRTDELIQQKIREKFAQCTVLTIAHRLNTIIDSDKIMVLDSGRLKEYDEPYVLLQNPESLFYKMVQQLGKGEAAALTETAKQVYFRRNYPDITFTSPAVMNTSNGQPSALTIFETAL
The conditions noted are these: 4 h.

Data set [3] concerns the target T2, mouse Abcc4. As to the kind of experiment: Accumulation/efflux in Saos-2 cells transfected with Abcc4. The conditions noted are these: 100 μM, 4-h incubation.
Data set [4] in a line: Plasma pharmacokinetics in wildtype and Abcc4. The conditions noted are these: oral 50 mg/kg, wildtype vs Abcc4(−/−) mice.

Consider 9 molecules from article PMC3752901 (Clinical cancer research : an official journal of the …, 2013).

With `C[C@]12CC[C@@H]3c4ccc(O)cc4CC[C@H]3[C@@H]1CC[C@@H]2O[C@@H]1O[C@H](C(=O)O)[C@@H](O)[C@H](O)[C@H]1O` [E2G, Estradiol-17β-D-glucuronide], the “increase of ABCC4-mediated transport by GSH” value at human ABCC4 is “about 2 fold”.
With `CN(Cc1cnc2nc(N)nc(N)c2n1)c1ccc(C(=O)N[C@@H](CCC(=O)O)C(=O)O)cc1` [MTX, methotrexate], the “pharmacokinetic profile after oral administration in Abcc4(−/−) mice” value in data set [1] was “unchanged”. In the data set with ABCC4, the Km (as a rule, the substrate concentration at which the rate is half of its maximum) is 220 to 1300 µM.
As for `Nc1ncnc2c1ncn2CCOCP(=O)(O)O` [adefovir], in the data set with ABCC4, the Km was more than 1000 µM.
Regarding `CC(=O)Oc1ccccc1C(=O)O` [aspirin, acetylsalicylic acid], the “substrate of mouse Abcc4” value at mouse Abcc4 [2] was “substrates of mouse Abcc4”. The “transported substrate of human ABCC4” value in the data set with ABCC4 is “transported substrate of human ABCC4”.
In the case of `CC1=C(C(=O)O)N2C(=O)[C@@H](NC(=O)[C@H](N)c3ccc(O)cc3)[C@H]2SC1` [cefadroxil], the “pharmacokinetic profile after oral administration in Abcc4(−/−) mice” value in data set [1] is on record as “unchanged”.
Take `Cc1ccc(NC(=O)c2ccc(CN3CCN(C)CC3)cc2)cc1Nc1nccc(-c2cccnc2)n1` [imatinib]: the “transport by mouse Abcc4 (accumulation in Saos-2 cells overexpressing Abcc4 compared to control cells)” value on mouse Abcc4 [3] is “no noticeable efflux transport”. Besides, the “effect of Abcc4-deficiency on the oral pharmacokinetic profile” value in data set [4] is listed as “not substantially affected”.
Regarding `Nc1nc2c(c(=O)[nH]1)N(C=O)C(CNc1ccc(C(=O)N[C@@H](CCC(=O)O)C(=O)O)cc1)CN2` (stereo partly drawn) [leucovorin], the Km with ABCC4 is 640 µM.
With `O=C(O)c1ccccc1O` [salicylic acid], at mouse Abcc4 [2], the “substrate of mouse Abcc4” value is reported as “substrates of mouse Abcc4”.
In the case of `C[C@H](Cn1cnc2c(N)ncnc21)OCP(=O)(O)O` [tenofovir], in the data set with ABCC4, the Km is more than 1000 µM.
